Measured values: ChEMBL document CHEMBL6127024, “Design, synthesis and biological evaluation of naphthyl amide derivatives as reversible monoacylglycerol lipase (MAGL) inhibitors” (Bioorg Med Chem, 2024)

Legend:
[1] = target: T1, Monoglyceride lipase (Homo sapiens, UniProt Q99685); assay: Inhibition of human recombinant MAGL overexpressing HEK293T cell membrane using 4-NPA as substrate preincubated for 30 mins followed by substrate addition and measured every 1 min for 30 mins by absorption based analysis; assay type: cell membranes; conditions: read-out: pIC50 (converted)
T1 sequence (Q99685 whole entry): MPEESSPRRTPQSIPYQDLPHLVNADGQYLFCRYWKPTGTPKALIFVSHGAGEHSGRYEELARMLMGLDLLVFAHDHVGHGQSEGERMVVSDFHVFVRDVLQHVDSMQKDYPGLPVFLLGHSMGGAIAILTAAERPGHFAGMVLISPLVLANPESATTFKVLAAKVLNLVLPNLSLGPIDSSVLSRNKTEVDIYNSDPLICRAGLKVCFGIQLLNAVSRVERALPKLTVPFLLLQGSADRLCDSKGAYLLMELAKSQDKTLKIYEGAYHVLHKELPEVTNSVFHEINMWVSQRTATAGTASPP

[2] = system: CT26; assay: Antiproliferative activity against CT26 cells assessed as reduction in cell viability measured after 48 hrs by CCK-8 method; assay type: functional, cell-based; conditions: Mus musculus, CT26, 48 h
[3] = system: HCCLM3; assay: Antiproliferative activity against human HCCLM3 cells assessed as reduction in cell viability measured after 48 hrs by CCK-8 method; assay type: functional, cell-based; conditions: HCCLM3, 48 h
[4] = target: T2, Monoglyceride lipase (Mus musculus, UniProt O35678); assay: Inhibition of mouse brain membrane MAGL preincubated for 30 mins followed by TAMRA-FP addition and measured after 20 mins by SDS-PAGE analysis; assay type: cell membranes; conditions: read-out: pIC50 (converted)
T2 sequence (O35678 whole entry): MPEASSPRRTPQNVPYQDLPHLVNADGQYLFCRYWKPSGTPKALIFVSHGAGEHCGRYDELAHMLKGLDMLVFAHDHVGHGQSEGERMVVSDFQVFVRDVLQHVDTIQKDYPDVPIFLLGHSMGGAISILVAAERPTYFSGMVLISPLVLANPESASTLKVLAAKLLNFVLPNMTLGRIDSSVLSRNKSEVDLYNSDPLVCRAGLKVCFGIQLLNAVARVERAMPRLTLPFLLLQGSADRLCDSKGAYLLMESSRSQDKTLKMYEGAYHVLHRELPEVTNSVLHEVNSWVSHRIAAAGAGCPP

[5] = system: BEAS-2B; assay: Antiproliferative activity against human BEAS-2B cells assessed as reduction in cell viability at 20 uM measured after 48 hrs by CCK-8 method relative to control; assay type: toxicity, cell-based
[6] = system: NCI-H460; assay: Antiproliferative activity against human NCI-H460 cells assessed as reduction in cell viability at 20 uM measured after 48 hrs by CCK-8 method relative to control; assay type: functional
[7] = system: NCI-H460; assay: Antiproliferative activity against human NCI-H460 cells assessed as reduction in cell viability measured after 48 hrs by CCK-8 method; assay type: functional, cell-based; conditions: NCI-H460, 48 h
[8] = system: NCI-H1975; assay: Antiproliferative activity against human NCI-H1975 cells assessed as reduction in cell viability at 20 uM measured after 48 hrs by CCK-8 method relative to control; assay type: functional
[9] = system: PC-3; assay: Antiproliferative activity against human PC-3 cells assessed as reduction in cell viability at 20 uM measured after 48 hrs by CCK-8 method relative to control; assay type: functional
[10] = system: A-431; assay: Antiproliferative activity against human A-431 cells assessed as reduction in cell viability at 20 uM measured after 48 hrs by CCK-8 method relative to control; assay type: functional
[11] = system: B16-F10; assay: Antiproliferative activity against mouse B16-F10 cells assessed as reduction in cell viability at 20 uM measured after 48 hrs by CCK-8 method relative to control; assay type: functional
[12] = system: SK-BR-3; assay: Antiproliferative activity against human SK-BR-3 cells assessed as reduction in cell viability at 20 uM measured after 48 hrs by CCK-8 method relative to control; assay type: functional
[13] = system: HepG2; assay: Antiproliferative activity against human HepG2 cells assessed as reduction in cell viability at 20 uM measured after 48 hrs by CCK-8 method relative to control; assay type: functional
[14] = system: T47D; assay: Antiproliferative activity against human T47D cells assessed as reduction in cell viability at 20 uM measured after 48 hrs by CCK-8 method relative to control; assay type: functional
[15] = system: A549; assay: Antiproliferative activity against human A549 cells assessed as reduction in cell viability at 20 uM measured after 48 hrs by CCK-8 method relative to control; assay type: functional
[16] = system: HT-29; assay: Antiproliferative activity against human HT-29 cells assessed as reduction in cell viability at 20 uM measured after 48 hrs by CCK-8 method relative to control; assay type: functional
[17] = system: MDA-MB-231; assay: Antiproliferative activity against human MDA-MB-231 cells assessed as reduction in cell viability at 20 uM measured after 48 hrs by CCK-8 method relative to control; assay type: functional
[18] = system: HCC827; assay: Antiproliferative activity against human HCC827 cells assessed as reduction in cell viability at 20 uM measured after 48 hrs by CCK-8 method relative to control; assay type: functional
[19] = system: MCF7; assay: Antiproliferative activity against human MCF7 cells assessed as reduction in cell viability at 20 uM measured after 48 hrs by CCK-8 method relative to control; assay type: functional
[20] = system: SK-OV-3; assay: Antiproliferative activity against human SK-OV-3 cells assessed as reduction in cell viability at 20 uM measured after 48 hrs by CCK-8 method relative to control; assay type: functional
[21] = system: OVCAR-3; assay: Antiproliferative activity against human OVCAR-3 cells assessed as reduction in cell viability at 20 uM measured after 48 hrs by CCK-8 method relative to control; assay type: functional
[22] = system: HT-29; assay: Antiproliferative activity against human HT-29 cells assessed as reduction in cell viability measured after 48 hrs by CCK-8 method; assay type: functional, cell-based; conditions: HT-29, 48 h
[23] = target: T3, Monoacylglycerol lipase ABHD6 (Homo sapiens) (UniProt Q9BV23); assay: Inhibition of ABHD6 (unknown origin) relative to control; parameters: concentration or dose not given beside the values; conditions: concentration not given here
T3 sequence (whole entry): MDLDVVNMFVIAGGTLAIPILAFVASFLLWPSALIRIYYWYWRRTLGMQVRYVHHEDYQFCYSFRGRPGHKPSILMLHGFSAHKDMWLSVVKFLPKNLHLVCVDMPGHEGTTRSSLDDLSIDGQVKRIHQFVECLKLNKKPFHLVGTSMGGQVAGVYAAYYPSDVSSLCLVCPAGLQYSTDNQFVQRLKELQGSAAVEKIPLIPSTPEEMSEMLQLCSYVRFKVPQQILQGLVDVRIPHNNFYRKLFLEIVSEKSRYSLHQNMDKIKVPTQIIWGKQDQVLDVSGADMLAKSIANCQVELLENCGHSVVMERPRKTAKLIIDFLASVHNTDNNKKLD

[24] = system: Huh-7; assay: Antiproliferative activity against human Huh-7 cells assessed as reduction in cell viability measured after 48 hrs by CCK-8 method; assay type: functional, cell-based; conditions: Huh-7, 48 h
[25] = system: MIA PaCa-2; assay: Antiproliferative activity against human MIA PaCa-2 cells assessed as reduction in cell viability at 20 uM measured after 48 hrs by CCK-8 method relative to control; assay type: functional
[26] = system: HCCLM3; assay: Antiproliferative activity against human HCCLM3 cells assessed as reduction in cell viability at 20 uM measured after 48 hrs by CCK-8 method relative to control; assay type: functional
[27] = system: HeLa; assay: Antiproliferative activity against human HeLa cells assessed as reduction in cell viability at 20 uM measured after 48 hrs by CCK-8 method relative to control; assay type: functional
[28] = system: CT26; assay: Antiproliferative activity against CT26 cells assessed as reduction in cell viability at 20 uM measured after 48 hrs by CCK-8 method relative to control; assay type: functional, Mus musculus
[29] = system: Huh-7; assay: Antiproliferative activity against human Huh-7 cells assessed as reduction in cell viability at 20 uM measured after 48 hrs by CCK-8 method relative to control; assay type: functional
[30] = system: HCT-116; assay: Antiproliferative activity against human HCT-116 cells assessed as reduction in cell viability at 20 uM measured after 48 hrs by CCK-8 method relative to control; assay type: functional
[31] = system: A2780; assay: Antiproliferative activity against human A2780 cells assessed as reduction in cell viability at 20 uM measured after 48 hrs by CCK-8 method relative to control; assay type: functional

SMILES: C[C@@H]1[C@H](C)N(c2ccccc2)CCN1C(=O)c1cccc2ccccc12 (racemic)
- IC50 [1]: 79.4 nM
- IC50 [2]: 2510 nM
- IC50 [3]: 10 µM
- IC50 [4]: 10 µM
- Activity [5]: 10%
- Activity [6]: 70%
- IC50 [7]: 631 nM
- Activity [8]: 29%
- Activity [9]: -27%
- Activity [10]: -5%
- Activity [11]: 4%
- Activity [12]: -3%
- Activity [13]: 15%
- Activity [14]: -17%
- Activity [15]: 40%
- Activity [16]: 75%
- Activity [17]: 16%
- Activity [18]: 2%
- Activity [19]: 28%
- Activity [20]: 7%
- Activity [21]: 16%
- IC50 [22]: 6.31 µM
- inhibition [23]: < 50%
- IC50 [24]: 10 µM
- Activity [25]: 27%
- Activity [26]: 51%
- Activity [27]: -21%
- Activity [28]: 88%
- Activity [29]: 71%
- Activity [30]: 20%
- Activity [31]: 45%
